Measured values taken from the NIST ThermoML archive (doi:10.1021/je900596d).
± gives the expanded uncertainty stated by the source.

Conditions: Vibrating tube method

FC(F)=C(F)C(F)(F)F [hexafluoropropene]
Conditions | mass density [kg/m3]
323.21 K, 828.7 kPa, Fluid (supercritical or subcritical phases) | 54.45 ± 0.08
323.21 K, 843.1 kPa, Fluid (supercritical or subcritical phases) | 55.34 ± 0.09
323.21 K, 857.3 kPa, Fluid (supercritical or subcritical phases) | 56.72 ± 0.08
323.21 K, 871.6 kPa, Fluid (supercritical or subcritical phases) | 57.78 ± 0.08
323.21 K, 885.7 kPa, Fluid (supercritical or subcritical phases) | 58.95 ± 0.08
323.21 K, 899.5 kPa, Fluid (supercritical or subcritical phases) | 60.25 ± 0.08
323.21 K, 913.3 kPa, Fluid (supercritical or subcritical phases) | 61.27 ± 0.08
323.21 K, 926.9 kPa, Fluid (supercritical or subcritical phases) | 62.44 ± 0.09
323.21 K, 940.4 kPa, Fluid (supercritical or subcritical phases) | 63.5 ± 0.09
323.21 K, 953.6 kPa, Fluid (supercritical or subcritical phases) | 64.78 ± 0.09
323.21 K, 979.1 kPa, Fluid (supercritical or subcritical phases) | 66.9 ± 0.09
323.21 K, 991.3 kPa, Fluid (supercritical or subcritical phases) | 67.99 ± 0.1
323.21 K, 1002.7 kPa, Fluid (supercritical or subcritical phases) | 69.01 ± 0.1
323.21 K, 1014.7 kPa, Fluid (supercritical or subcritical phases) | 70.07 ± 0.1
323.21 K, 1026.1 kPa, Fluid (supercritical or subcritical phases) | 71.06 ± 0.1
323.21 K, 1037.2 kPa, Fluid (supercritical or subcritical phases) | 72 ± 0.11
323.21 K, 1048.9 kPa, Fluid (supercritical or subcritical phases) | 73.11 ± 0.11
323.21 K, 1059.5 kPa, Fluid (supercritical or subcritical phases) | 74 ± 0.11
323.21 K, 1071.8 kPa, Fluid (supercritical or subcritical phases) | 75.2 ± 0.11
323.21 K, 1084.6 kPa, Fluid (supercritical or subcritical phases) | 76.45 ± 0.11
323.21 K, 1096.6 kPa, Fluid (supercritical or subcritical phases) | 77.55 ± 0.11
323.21 K, 1108.7 kPa, Fluid (supercritical or subcritical phases) | 78.69 ± 0.12
323.21 K, 1120.7 kPa, Fluid (supercritical or subcritical phases) | 80.05 ± 0.12
323.21 K, 1132.3 kPa, Fluid (supercritical or subcritical phases) | 81.01 ± 0.12
323.21 K, 1143.9 kPa, Fluid (supercritical or subcritical phases) | 82.09 ± 0.12
323.21 K, 1155.2 kPa, Fluid (supercritical or subcritical phases) | 83.24 ± 0.12
323.21 K, 1165.7 kPa, Fluid (supercritical or subcritical phases) | 84.23 ± 0.13
323.21 K, 1176.1 kPa, Fluid (supercritical or subcritical phases) | 85.31 ± 0.13
323.21 K, 1188.5 kPa, Fluid (supercritical or subcritical phases) | 86.52 ± 0.13
323.21 K, 1200.2 kPa, Fluid (supercritical or subcritical phases) | 87.81 ± 0.13
323.21 K, 1211.6 kPa, Fluid (supercritical or subcritical phases) | 88.92 ± 0.13
323.21 K, 1222.4 kPa, Fluid (supercritical or subcritical phases) | 90.01 ± 0.13
323.21 K, 1232.6 kPa, Fluid (supercritical or subcritical phases) | 91.08 ± 0.14
323.21 K, 1244.2 kPa, Fluid (supercritical or subcritical phases) | 92.41 ± 0.14
323.21 K, 1254.9 kPa, Fluid (supercritical or subcritical phases) | 93.54 ± 0.14
323.21 K, 1265.5 kPa, Fluid (supercritical or subcritical phases) | 94.64 ± 0.14
323.21 K, 1276.2 kPa, Fluid (supercritical or subcritical phases) | 95.86 ± 0.15
323.21 K, 1286.6 kPa, Fluid (supercritical or subcritical phases) | 97.01 ± 0.15
323.21 K, 1298.7 kPa, Fluid (supercritical or subcritical phases) | 98.44 ± 0.15
323.21 K, 1311.6 kPa, Fluid (supercritical or subcritical phases) | 99.8 ± 0.15
323.21 K, 1324 kPa, Fluid (supercritical or subcritical phases) | 101.35 ± 0.16
323.21 K, 1336 kPa, Fluid (supercritical or subcritical phases) | 102.77 ± 0.16
323.21 K, 1347.5 kPa, Fluid (supercritical or subcritical phases) | 104.06 ± 0.16
323.21 K, 1358.7 kPa, Fluid (supercritical or subcritical phases) | 105.47 ± 0.16
323.21 K, 1369.5 kPa, Fluid (supercritical or subcritical phases) | 106.75 ± 0.17
323.21 K, 1380 kPa, Fluid (supercritical or subcritical phases) | 108.11 ± 0.17
323.21 K, 1392.5 kPa, Fluid (supercritical or subcritical phases) | 109.8 ± 0.17
323.21 K, 1402.5 kPa, Fluid (supercritical or subcritical phases) | 110.98 ± 0.2
323.21 K, 1410.5 kPa, Fluid (supercritical or subcritical phases) | 112.1 ± 0.23
323.21 K, 1411.1 kPa, Fluid (supercritical or subcritical phases) | 112.29 ± 0.23
323.21 K, 1411.8 kPa, Fluid (supercritical or subcritical phases) | 112.41 ± 0.23
323.21 K, 1412.5 kPa, Fluid (supercritical or subcritical phases) | 112.57 ± 0.23
323.21 K, 1413.3 kPa, Fluid (supercritical or subcritical phases) | 112.79 ± 0.29
323.21 K, 1414.6 kPa, Fluid (supercritical or subcritical phases) | 113.23 ± 0.21
323.21 K, 1415.9 kPa, Fluid (supercritical or subcritical phases) | 113.81 ± 0.22
323.21 K, 1417 kPa, Fluid (supercritical or subcritical phases) | 114.07 ± 0.23
323.21 K, 1417.8 kPa, Fluid (supercritical or subcritical phases) | 114.29 ± 0.23
323.21 K, 1418.6 kPa, Fluid (supercritical or subcritical phases) | 115.65 ± 0.28
323.21 K, 1418.8 kPa, Fluid (supercritical or subcritical phases) | 116.26 ± 0.31
323.37 K, 1419.4 kPa, Liquid | 1174.23 ± 1.2
323.37 K, 1421.5 kPa, Liquid | 1174.38 ± 1.2
323.37 K, 1423.2 kPa, Liquid | 1174.38 ± 1.2
323.37 K, 1425.7 kPa, Liquid | 1174.43 ± 1.2
323.37 K, 1427.1 kPa, Liquid | 1174.45 ± 1.2
323.37 K, 1432.2 kPa, Liquid | 1174.63 ± 1.2
323.37 K, 1436.2 kPa, Liquid | 1174.81 ± 1.2
